The source of these data is ChEMBL document CHEMBL1143880, “Targeting gastrin-releasing peptide receptors of prostate cancer cells for photodynamic therapy with a phthalocyanine-bombesin conjugate” (Bioorg Med Chem Lett, 2008).

As usually defined, the EC50 is the concentration that produces a half-maximal response. Lower therefore signals a more potent agent.

The structures appear in SMILES notation.

This assay addresses Gastrin-releasing peptide receptor (Homo sapiens, UniProt P30550). Put plainly: Displacement of 125I[Tyr4]-bombesin from GRPR expressed in human PC3 cells. Type of assay: cell-based, PC-3. On the technique in general: Displacement assays read how much labelled ligand stays bound in the presence of the test substance.

Chain of Gastrin-releasing peptide receptor (P30550 whole entry): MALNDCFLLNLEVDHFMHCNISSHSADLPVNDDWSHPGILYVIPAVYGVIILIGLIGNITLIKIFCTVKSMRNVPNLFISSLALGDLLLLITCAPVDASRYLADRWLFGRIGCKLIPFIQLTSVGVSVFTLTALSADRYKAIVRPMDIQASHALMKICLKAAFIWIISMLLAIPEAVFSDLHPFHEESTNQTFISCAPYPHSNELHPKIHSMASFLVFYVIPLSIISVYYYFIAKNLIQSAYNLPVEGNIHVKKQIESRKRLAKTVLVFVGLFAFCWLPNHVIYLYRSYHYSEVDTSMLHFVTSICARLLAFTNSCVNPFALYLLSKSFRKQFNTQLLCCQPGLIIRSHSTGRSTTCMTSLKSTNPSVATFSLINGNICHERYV

As to `CSCC[C@H](NC(=O)[C@H](CC(C)C)NC(=O)[C@H](Cc1cnc[nH]1)NC(=O)CNC(=O)[C@@H](NC(=O)[C@H](C)NC(=O)[C@H](Cc1c[nH]c2ccccc12)NC(=O)[C@H](CCC(N)=O)NC(=O)CCCCCCCNC(=O)CCCCCN)C(C)C)C(N)=O`, the EC50 is 0.373 nM. That is a sub-nanomolar value.
